In the supplement of paper PMC10307832:

Experiments:
Assay in all cases: relative viability (nuclei count vs DMSO), 5 days (fraction); higher = more cells survive
Fedratinib + Lapatinib = compound: Cc1cnc(Nc2ccc(OCCN3CCCC3)cc2)nc1Nc1cccc(S(=O)(=O)NC(C)(C)C)c1 [Fedratinib] + CS(=O)(=O)CCNCc1ccc(-c2ccc3ncnc(Nc4ccc(OCc5cccc(F)c5)c(Cl)c4)c3c2)o1 [Lapatinib] (partner 2 µM)
Procedure, shortened: (§1)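 Cells from lung cancer lines were seeded into 1536-well plates and, one day later, dosed by pin tool. Treatments were either a single drug or a fixed dose of an anchor drug with five library-drug doses (not always all listed) in √10 steps. After 5 days, nuclei were stained in a one-step fixation (final 0.05% Triton X-100, 1% formaldehyde, 1 ug/ml Hoechst) and counted on 4× images, and relative viability is the treated-to-vehicle nuclei ratio, as the median of duplicate plates.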

Fedratinib + Olaparib = compound: Cc1cnc(Nc2ccc(OCCN3CCCC3)cc2)nc1Nc1cccc(S(=O)(=O)NC(C)(C)C)c1 [Fedratinib] + O=C(c1cc(Cc2n[nH]c(=O)c3ccccc23)ccc1F)N1CCN(C(=O)C2CC2)CC1 [Olaparib] (partner 8 µM)
Procedure, shortened: as §1

Fedratinib + Palbociclib = compound: Cc1cnc(Nc2ccc(OCCN3CCCC3)cc2)nc1Nc1cccc(S(=O)(=O)NC(C)(C)C)c1 [Fedratinib] + CC(=O)c1c(C)c2cnc(Nc3ccc(N4CCNCC4)cn3)nc2n(C2CCCC2)c1=O [Palbociclib] (partner 0.5 µM)
Procedure, shortened: as §1

GW-2580 + Lapatinib = compound: COC1=CC=C(C=C1)COC2=C(C=C(C=C2)CC3=CN=C(N=C3N)N)OC [GW-2580] + CS(=O)(=O)CCNCc1ccc(-c2ccc3ncnc(Nc4ccc(OCc5cccc(F)c5)c(Cl)c4)c3c2)o1 [Lapatinib] (partner 2 µM)
Procedure, shortened: as §1

Fedratinib + Alpelisib = compound: Cc1cnc(Nc2ccc(OCCN3CCCC3)cc2)nc1Nc1cccc(S(=O)(=O)NC(C)(C)C)c1 [Fedratinib] + Cc1nc(NC(=O)N2CCC[C@H]2C(N)=O)sc1-c1ccnc(C(C)(C)C(F)(F)F)c1 [Alpelisib] (partner 2 µM)
Procedure, shortened: as §1

GW-2580 + Tozasertib = compound: COC1=CC=C(C=C1)COC2=C(C=C(C=C2)CC3=CN=C(N=C3N)N)OC [GW-2580] + Cc1cc(Nc2cc(N3CCN(C)CC3)nc(Sc3ccc(NC(=O)C4CC4)cc3)n2)n[nH]1 [Tozasertib] (partner 0.1 µM)
Procedure, shortened: as §1

## UMC-11
Fedratinib + Lapatinib; first compound 0.1 µM
  relative viability: 0.825
Fedratinib + Lapatinib; first compound 0.3162 µM
  relative viability: 1.08
Fedratinib + Lapatinib; first compound 1 µM
  relative viability: 0.284
Fedratinib + Olaparib; first compound 0.1 µM
  relative viability: 0.3
Fedratinib + Olaparib; first compound 0.3162 µM
  relative viability: 0.33
Fedratinib + Olaparib; first compound 1 µM
  relative viability: 0.23
Fedratinib + Palbociclib; first compound 0.1 µM
  relative viability: 0.345
Fedratinib + Palbociclib; first compound 0.3162 µM
  relative viability: 0.311
Fedratinib + Palbociclib; first compound 1 µM
  relative viability: 0.301
GW-2580 + Lapatinib; first compound 0.08 µM
  relative viability: 1.26
GW-2580 + Lapatinib; first compound 0.8 µM
  relative viability: 1.11
GW-2580 + Lapatinib; first compound 2.53 µM
  relative viability: 0.88
GW-2580 + Lapatinib; first compound 8 µM
  relative viability: 1.15
Fedratinib + Alpelisib; first compound 0.1 µM
  relative viability: 0.985
Fedratinib + Alpelisib; first compound 0.3162 µM
  relative viability: 0.876
Fedratinib + Alpelisib; first compound 1 µM
  relative viability: 0.95
GW-2580 + Tozasertib; first compound 0.08 µM
  relative viability: 0.206
GW-2580 + Tozasertib; first compound 0.8 µM
  relative viability: 0.284
GW-2580 + Tozasertib; first compound 2.53 µM
  relative viability: 0.198
GW-2580 + Tozasertib; first compound 8 µM
  relative viability: 0.197
